# pIC50, pKd: −log10 of the molar value.
# How the values were obtained:
# Platelet glycoprotein VI [1] = target: T1, Platelet glycoprotein VI (Homo sapiens, UniProt Q9HCN6); experiment: Binding affinity to recombinant GP6 (unknown origin) at protein to compound ratio of 1 : 1 to 1 : 10 by 2D 15N-1H TROSY-HSQC NMR spectroscopy
# T1 sequence (Q9HCN6 whole entry): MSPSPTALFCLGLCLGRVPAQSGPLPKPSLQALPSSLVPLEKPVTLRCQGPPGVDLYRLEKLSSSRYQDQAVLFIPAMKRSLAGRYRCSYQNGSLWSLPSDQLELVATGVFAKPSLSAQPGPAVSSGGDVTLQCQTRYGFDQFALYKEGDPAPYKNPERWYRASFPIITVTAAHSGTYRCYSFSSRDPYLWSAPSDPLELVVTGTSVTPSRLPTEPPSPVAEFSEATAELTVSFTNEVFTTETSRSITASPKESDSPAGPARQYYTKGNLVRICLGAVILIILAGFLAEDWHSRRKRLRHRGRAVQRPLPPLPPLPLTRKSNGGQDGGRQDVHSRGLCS
# [2] = target: T2, Thromboxane A2 receptor (Homo sapiens) (UniProt P21731); experiment: Modulation of TxA2 receptor in human platelet suspension assessed as lowest concentration that reduced U46619-induced platelet aggregation preincubated for 5 min followed by U46619 stimulation by light transmission aggregometry; type: tissue-based; conditions: filed as modulator
# T2 sequence (whole entry): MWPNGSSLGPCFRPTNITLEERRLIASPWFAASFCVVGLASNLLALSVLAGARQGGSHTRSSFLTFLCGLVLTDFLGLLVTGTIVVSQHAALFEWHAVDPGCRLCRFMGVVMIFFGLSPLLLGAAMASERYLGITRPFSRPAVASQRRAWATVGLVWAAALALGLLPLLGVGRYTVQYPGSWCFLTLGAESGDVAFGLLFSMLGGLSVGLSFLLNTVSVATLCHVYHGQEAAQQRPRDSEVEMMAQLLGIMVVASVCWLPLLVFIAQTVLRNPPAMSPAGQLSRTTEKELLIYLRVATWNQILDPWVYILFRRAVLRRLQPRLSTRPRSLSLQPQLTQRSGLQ
# [3] = Inhibition of ADP-stimulated human platelet aggregation assessed as ADP light transmission at 50 uM preincubated for 5 min followed by ADP stimulation by light transmission aggregometry (reference value: 62 +/- 3%); type: functional; design: scale not given: the % may be the effect or the level left
# [4] = target: T2, Thromboxane A2 receptor (Homo sapiens); experiment: Inhibition of [3H]-U46619 binding to TxA2 receptor in human platelet suspension at 0.3 uM incubated for 30 mins by liquid scintillation counting method relative to control; type: tissue-based
# Platelet glycoprotein VI [5] = target: T1, Platelet glycoprotein VI; experiment: Binding affinity to human platelet lysate GP6 at 0.1 uM by surface plasmon resonance analysis; type: subcellular
# [6] = target: T2, Thromboxane A2 receptor (Homo sapiens); experiment: Inhibition of [3H]-U46619 binding to TxA2 receptor in human platelet suspension at 0.7 uM incubated for 30 mins by liquid scintillation counting method relative to control; type: tissue-based
# [7] = target: T3, Platelet glycoprotein VI (Homo sapiens) (UniProt Q9HCN6); conditions: Plasma, filed as modulator, time 15.0 min
# T3 sequence (whole entry): T1 sequence (Q9HCN6 whole entry)
# [8] = Inhibition of collagen-induced platelet aggregation in human platelet suspension preincubated for 10 mins followed by collagen stimulation by light transmission-based assay; type: functional, tissue-based
# [9] = Inhibition of collagen-induced platelet aggregation in human platelet suspension preincubated for 3 mins followed by collagen stimulation and measured after 6 mins by lumi-aggregometry; type: functional, tissue-based
# Platelet glycoprotein VI [10] = target: T1, Platelet glycoprotein VI; experiment: Binding affinity to human platelet lysate GP6 at 100 uM by surface plasmon resonance analysis; type: subcellular
# [11] = Inhibition of collagen-induced human platelet aggregation preincubated for 20 mins followed by collagen stimulation and measured for 10 mins by aggregometry; type: functional, tissue-based
# [12] = Inhibition of ADP-induced platelet aggregation in human platelet suspension preincubated for 3 mins followed by […] and measured after 6 mins by lumi-aggregometry; type: functional, tissue-based
# [13] = Inhibition of arachidonic acid-induced platelet aggregation in human platelet suspension preincubated for 3 mins followed by […] and measured after 6 mins by lumi-aggregometry; type: functional, tissue-based
# [14] = Inhibition of ADP-induced platelet aggregation in rabbit platelet suspension preincubated for 10 mins followed by ADP stimulation by turbidimetric method; type: functional, tissue-based; conditions: Oryctolagus cuniculus
# [15] = Inhibition of arachidonic acid-induced platelet aggregation in rabbit platelet suspension preincubated for 10 mins followed by AA stimulation by turbidimetric method; type: functional, tissue-based; conditions: Oryctolagus cuniculus
# [16] = Inhibition of PAF-induced platelet aggregation in rabbit platelet suspension preincubated for 10 mins followed by PAF stimulation by turbidimetric method; type: functional, tissue-based; conditions: Oryctolagus cuniculus
# [17] = Antagonist activity at GP6 in human platelet assessed as reduction in CRP-induced platelet-aggregation preincubated for 60 secs followed by […] by light transmission aggregometry
# [18] = Inhibition of human platelet adhesion to immobilised CRP-XL at 1 umol/L preincubated for 4 mins followed by CRP-XL addition and measured after 45 mins relative to control; type: functional; conditions: 49 min, dose 1 µmol/L
# [19] = Inhibition of human platelet lamellipodia formation on CRP-XL 1 umol/L preincubated for 4 mins followed by CRP-XL addition and measured after 45 mins (reference value: 69%); type: functional; conditions: dose 1 µmol/L, time 49 min, at 1 µM
# [20] = Modulation of GP6/FcRgamma in human platelet-rich plasma assessed as reduction in convulxin-induced platelet aggregation
# Platelet glycoprotein VI [21] = target: T1, Platelet glycoprotein VI; experiment: Modulation of GP6 in human platelets assessed as reduction in convulxin-induced P-selectin expression preincubated for 20 mins followed by convulxin stimulation and measured after 1 min by Western blot analysis; type: tissue-based
# [22] = Modulation of GP6 in porcine platelet-rich plasma assessed as reduction in convulxin-induced platelet aggregation; type: tissue-based; conditions: Sus scrofa
molecule,measurement,setting,value
c1ccc(CCOc2ccc(-c3ccccc3-c3nn[nH]n3)cc2)cc1,pKd,Platelet glycoprotein VI [1],4.28
CCCCC1=NC2(CCCC2)C(=O)N1Cc1ccc(-c2ccccc2-c2nnn[nH]2)cc1 [IRBESARTAN],MEC,[2],0.5 µM
same,Activity,[3],38%
same,inhibition,[4],50%
NCCCC(=O)O [GAMMA-AMINOBUTYRIC ACID],pKd,Platelet glycoprotein VI [5],7.39
H-YSDTDWLYFSTS-OH,pKd,Platelet glycoprotein VI [1],4.24
CCCCc1nc(Cl)c(CO)n1Cc1ccc(-c2ccccc2-c2nnn[nH]2)cc1 [LOSARTAN],inhibition,[6],50%
same,MEC,[2],0.5 µM
same,Activity,[3],39%
same,MEC,[7],500 µM
CCOc1nc2cccc(C(=O)O)c2n1Cc1ccc(-c2ccccc2-c2nnn[nH]2)cc1,Activity,[3],60%
c1ccc(CCCCOc2ccc(-c3ccccc3-c3nn[nH]n3)cc2)cc1,pKd,Platelet glycoprotein VI [1],3.07
O=C(O)Cc1cccc(OCCCN(Cc2cccc(C(F)(F)F)c2Cl)CC(c2ccccc2)c2ccccc2)c1,pIC50,[8],7.52
CCCc1nc2c(C)cc(-c3nc4ccccc4n3C)cc2n1Cc1ccc(-c2ccccc2C(=O)O)cc1,MEC,[2],5 µM
same,Activity,[3],48%
CCCc1nc(C(C)(C)O)c(C(=O)O)n1Cc1ccc(-c2ccccc2-c2nnn[nH]2)cc1 [OLMESARTAN],pKd,Platelet glycoprotein VI [1],3.52
c1ccc(-c2cccc(-c3nn[nH]n3)c2)cc1,pKd,Platelet glycoprotein VI [1],4.10
C=CCc1ccc(O)c(-c2ccc(O)c(CC=C)c2)c1 [HONOKIOL],pIC50,[9],6.22
same,pKd,Platelet glycoprotein VI [10],3.54
C/C(O)=C(\C#N)C(=O)Nc1cc(Br)ccc1Br,pIC50,[11],5.55
CC(C)=CCC/C(C)=C/C=C/C(C)=C/C=C/C(C)=C/C=C/C=C(C)/C=C/C=C(C)/C=C/C=C(\C)CCC=C(C)C [LYCOPENE],pIC50,[9],5.24
same,pIC50,[12],5.21
same,pIC50,[13],5.17
CCCCc1nc(Cl)c(C=O)n1Cc1ccc(-c2ccccc2-c2nn[nH]n2)cc1,MEC,[7],500 µM
C=C1C(=O)[C@@]23[C@H](O)C[C@@H]4C(C)(C)C(=O)CC[C@@]4(C)[C@@H]2CC[C@@H]1[C@H]3O [GLAUCOCALYXIN A],pIC50,[14],5.36
same,pIC50,[15],4.85
same,pIC50,[16],4.86
CCCCC(=O)N(Cc1ccc(-c2ccccc2-c2nnn[nH]2)cc1)[C@H](C(=O)O)C(C)C,pKd,Platelet glycoprotein VI [1],4.00
same,MEC,[2],50 µM
same,Activity,[3],53%
CN(C)CCCSc1ccccc1NC(=O)/C=C/c1ccccc1 [CINANSERIN],pIC50,[17],4.46
Cc1ccccc1-c1nn[nH]n1,pKd,Platelet glycoprotein VI [1],2.96
O=S(=O)(c1ccccc1)N(CC(F)(F)F)c1ccc(C(O)(C(F)(F)F)C(F)(F)F)cc1 [T091317],pIC50,[8],< 7.30
C=CC(=O)N1CCC[C@@H](n2nc(-c3ccc(Oc4ccccc4)cc3)c3c(N)ncnc32)C1 [IBRUTINIB],inhibition at 1 µM,[18],70%
same,inhibition (INH),[19],11%
c1ccc(-c2ccccc2-c2nn[nH]n2)cc1,pKd,Platelet glycoprotein VI [1],3.44
O=C(O)c1ccccc1-c1ccccc1,pKd,Platelet glycoprotein VI [1],2.82
Cc1cccc(Nc2nc(N[C@@H]3CCCC[C@@H]3N)ncc2C(N)=O)c1,pIC50,[20],5.60
same,pIC50,Platelet glycoprotein VI [21],7.32
same,pIC50,[22],6.46

# Source: ChEMBL document CHEMBL4680264, “Progress toward a Glycoprotein VI Modulator for the Treatment of Thrombosis” (J Med Chem, 2020)
